Test results: patent US20230085307A1, “PYRIDAZINONE COMPOUND AND HERBICIDE” (NISSAN CHEMICAL CORPORATION, priority 2019, published 2023)

What was measured:
barnyard grass [1] = experiment: Test Example 3: herbicidal effect by foliage application, Wagner pot (Table 18, symbol H); format: in vivo, barnyard grass (Echinochloa crus-galli)
Summary of the method: (§1)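 Plants were sown in alluvial soil held under 0.1–0.5 cm standing water and grown 14 days in a greenhouse at 25–30 °C. An emulsifiable formulation, water-diluted to the set dose, was then sprayed onto the foliage, and effects were scored three weeks later using previously defined criteria.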

Chinese sprangletop = experiment: Test Example 3: herbicidal effect by foliage application, Wagner pot (Table 18, symbol D); format: in vivo, chinese sprangletop (Leptochloa chinensis)
Summary of the method: as §1

rice flat sedge = experiment: Test Example 3: herbicidal effect by foliage application, Wagner pot (Table 18, symbol E); format: in vivo, rice flat sedge (Cyperus iria)
Summary of the method: as §1

southern crabgrass [2] = experiment: Test Example 4: herbicidal effect by soil treatment (Table 19, symbol F); format: in vivo, southern crabgrass (Digitaria ciliaris)
Summary of the method: (§2)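 Herbicidal effect was rated 3 weeks after treatment, using the scoring criteria of an earlier test. The compound, formulated as an emulsion and diluted in water to a set herbicide amount, had been sprayed uniformly on soil over freshly sown seeds. Growth took place in a greenhouse at 25° C. to 30° C.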

green foxtail [3] = experiment: Test Example 4: herbicidal effect by soil treatment (Table 19, symbol G); format: in vivo, green foxtail (Setaria viridis)
Summary of the method: as §2

barnyard grass [4] = experiment: Test Example 4: herbicidal effect by soil treatment (Table 19, symbol H); format: in vivo, barnyard grass (Echinochloa crus-galli)
Summary of the method: as §2

wild oat [5] = experiment: Test Example 4: herbicidal effect by soil treatment (Table 19, symbol I); format: in vivo, wild oat (Avena fatua)
Summary of the method: as §2

blackgrass [6] = experiment: Test Example 4: herbicidal effect by soil treatment (Table 19, symbol J); format: in vivo, blackgrass (Alopecurus myosuroides)
Summary of the method: as §2

Italian ryegrass [7] = experiment: Test Example 4: herbicidal effect by soil treatment (Table 19, symbol K); format: in vivo, Italian ryegrass (Lolium multiflorum)
Summary of the method: as §2

windgrass [8] = experiment: Test Example 4: herbicidal effect by soil treatment (Table 19, symbol L); format: in vivo, windgrass (Apera spica-venti)
Summary of the method: as §2

velvetleaf [9] = experiment: Test Example 4: herbicidal effect by soil treatment (Table 19, symbol M); format: in vivo, velvetleaf (Abutilon theophrasti)
Summary of the method: as §2

redroot pigweed [10] = experiment: Test Example 4: herbicidal effect by soil treatment (Table 19, symbol N); format: in vivo, redroot pigweed (Amaranthus retroflexus)
Summary of the method: as §2

lambsquarters [11] = experiment: Test Example 4: herbicidal effect by soil treatment (Table 19, symbol O); format: in vivo, lambsquarters (Chenopodium album)
Summary of the method: as §2

chickweed [12] = experiment: Test Example 4: herbicidal effect by soil treatment (Table 19, symbol P); format: in vivo, common chickweed (Stellaria media)
Summary of the method: as §2

false cleavers [13] = experiment: Test Example 4: herbicidal effect by soil treatment (Table 19, symbol Q); format: in vivo, false cleavers (Galium spurium)
Summary of the method: as §2

persian speedwell [14] = experiment: Test Example 4: herbicidal effect by soil treatment (Table 19, symbol R); format: in vivo, Persian speedwell (Veronica persica)
Summary of the method: as §2

southern crabgrass [15] = experiment: Test Example 5: herbicidal effect by foliage application, plastic box (Table 20, symbol F); format: in vivo, southern crabgrass (Digitaria ciliaris); settings: foliage application, three weeks after application
Summary of the method: (§3)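 Foliar spray test: emulsion formulation diluted in water to a set application rate, sprayed onto 14-day-old plants raised in diluvial soil at 25° C to 30° C under glass. Both herbicidal effect and crop effect rated visually three weeks later.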

green foxtail [16] = experiment: Test Example 5: herbicidal effect by foliage application, plastic box (Table 20, symbol G); format: in vivo, green foxtail (Setaria viridis); settings: foliage application, three weeks after application
Summary of the method: as §3

barnyard grass [17] = experiment: Test Example 5: herbicidal effect by foliage application, plastic box (Table 20, symbol H); format: in vivo, barnyard grass (Echinochloa crus-galli); settings: foliage application, three weeks after application
Summary of the method: as §3

wild oat [18] = experiment: Test Example 5: herbicidal effect by foliage application, plastic box (Table 20, symbol I); format: in vivo, wild oat (Avena fatua); settings: foliage application, three weeks after application
Summary of the method: as §3

blackgrass [19] = experiment: Test Example 5: herbicidal effect by foliage application, plastic box (Table 20, symbol J); format: in vivo, blackgrass (Alopecurus myosuroides); settings: foliage application, three weeks after application
Summary of the method: as §3

Italian ryegrass [20] = experiment: Test Example 5: herbicidal effect by foliage application, plastic box (Table 20, symbol K); format: in vivo, Italian ryegrass (Lolium multiflorum); settings: foliage application, three weeks after application
Summary of the method: as §3

windgrass [21] = experiment: Test Example 5: herbicidal effect by foliage application, plastic box (Table 20, symbol L); format: in vivo, windgrass (Apera spica-venti); settings: foliage application, three weeks after application
Summary of the method: as §3

velvetleaf [22] = experiment: Test Example 5: herbicidal effect by foliage application, plastic box (Table 20, symbol M); format: in vivo, velvetleaf (Abutilon theophrasti); settings: foliage application, three weeks after application
Summary of the method: as §3

redroot pigweed [23] = experiment: Test Example 5: herbicidal effect by foliage application, plastic box (Table 20, symbol N); format: in vivo, redroot pigweed (Amaranthus retroflexus); settings: foliage application, three weeks after application
Summary of the method: as §3

lambsquarters [24] = experiment: Test Example 5: herbicidal effect by foliage application, plastic box (Table 20, symbol O); format: in vivo, lambsquarters (Chenopodium album); settings: foliage application, three weeks after application
Summary of the method: as §3

chickweed [25] = experiment: Test Example 5: herbicidal effect by foliage application, plastic box (Table 20, symbol P); format: in vivo, common chickweed (Stellaria media); settings: foliage application, three weeks after application
Summary of the method: as §3

false cleavers [26] = experiment: Test Example 5: herbicidal effect by foliage application, plastic box (Table 20, symbol Q); format: in vivo, false cleavers (Galium spurium); settings: foliage application, three weeks after application
Summary of the method: as §3

persian speedwell [27] = experiment: Test Example 5: herbicidal effect by foliage application, plastic box (Table 20, symbol R); format: in vivo, Persian speedwell (Veronica persica); settings: foliage application, three weeks after application
Summary of the method: as §3

[28] = amount of applied herbicide 144 g/ha
[29] = amount of applied herbicide 320 g/ha

Cc1nn(C)c(=O)c(-c2c(-c3ccc(C(F)(F)F)nc3)sc3ccccc23)c1O [1-078]
herbicidal effect on H (barnyard grass), rating 0-5 (barnyard grass [1]; 144 g/ha): 1 (Herbicidal rate of 5% or more and less than 20%) | herbicidal effect on D (Chinese sprangletop), rating 0-5 (Chinese sprangletop; 144 g/ha): 0 (Herbicidal rate of 5% or less (almost no effect)) | herbicidal effect on E (rice flat sedge), rating 0-5 (rice flat sedge; 144 g/ha): 3 (Herbicidal rate of 40% or more and less than 70%) | herbicidal effect rating, F: southern crabgrass (southern crabgrass [2]; [28]): 0 (Herbicidal rate of 5% or less (almost no effect)) | herbicidal effect rating, G: green foxtail (green foxtail [3]; [28]): 0 (Herbicidal rate of 5% or less (almost no effect)) | herbicidal effect rating, H: barnyard grass (barnyard grass [4]; [28]): 2 (Herbicidal rate of 20% or more and less than 40%) | herbicidal effect rating, I: wild oat (wild oat [5]; [28]): 0 (Herbicidal rate of 5% or less (almost no effect)) | herbicidal effect rating, J: blackgrass (blackgrass [6]; [28]): 0 (Herbicidal rate of 5% or less (almost no effect)) | herbicidal effect rating, K: Italian ryegrass (Italian ryegrass [7]; [28]): 0 (Herbicidal rate of 5% or less (almost no effect)) | herbicidal effect rating, L: windgrass (windgrass [8]; [28]): 0 (Herbicidal rate of 5% or less (almost no effect)) | herbicidal effect rating, M: velvetleaf (velvetleaf [9]; [28]): 0 (Herbicidal rate of 5% or less (almost no effect)) | herbicidal effect rating, N: redroot pigweed (redroot pigweed [10]; [28]): 0 (Herbicidal rate of 5% or less (almost no effect)) | herbicidal effect rating, O: lambsquarters (lambsquarters [11]; [28]): 3 (Herbicidal rate of 40% or more and less than 70%) | herbicidal effect rating, P: chickweed (chickweed [12]; [28]): 0 (Herbicidal rate of 5% or less (almost no effect)) | herbicidal effect rating, Q: false cleavers (false cleavers [13]; [28]): 0 (Herbicidal rate of 5% or less (almost no effect)) | herbicidal effect rating, R: persian speedwell (persian speedwell [14]; [28]): 2 (Herbicidal rate of 20% or more and less than 40%) | herbicidal effect grade, F: southern crabgrass (southern crabgrass [15]; 144 g/ha): 0 (Herbicidal rate of 5% or less (almost no effect)) | herbicidal effect grade, G: green foxtail (green foxtail [16]; 144 g/ha): 0 (Herbicidal rate of 5% or less (almost no effect)) | herbicidal effect grade, H: barnyard grass (barnyard grass [17]; 144 g/ha): 0 (Herbicidal rate of 5% or less (almost no effect)) | herbicidal effect grade, I: wild oat (wild oat [18]; 144 g/ha): 0 (Herbicidal rate of 5% or less (almost no effect)) | herbicidal effect grade, J: blackgrass (blackgrass [19]; 144 g/ha): 0 (Herbicidal rate of 5% or less (almost no effect)) | herbicidal effect grade, K: Italian ryegrass (Italian ryegrass [20]; 144 g/ha): 0 (Herbicidal rate of 5% or less (almost no effect)) | herbicidal effect grade, L: windgrass (windgrass [21]; 144 g/ha): 0 (Herbicidal rate of 5% or less (almost no effect)) | herbicidal effect grade, M: velvetleaf (velvetleaf [22]; 144 g/ha): 5 (Herbicidal rate of 90% or more (almost completely withered)) | herbicidal effect grade, N: redroot pigweed (redroot pigweed [23]; 144 g/ha): 0 (Herbicidal rate of 5% or less (almost no effect)) | herbicidal effect grade, O: lambsquarters (lambsquarters [24]; 144 g/ha): 2 (Herbicidal rate of 20% or more and less than 40%) | herbicidal effect grade, P: chickweed (chickweed [25]; 144 g/ha): 5 (Herbicidal rate of 90% or more (almost completely withered)) | herbicidal effect grade, Q: false cleavers (false cleavers [26]; 144 g/ha): 1 (Herbicidal rate of 5% or more and less than 20%) | herbicidal effect grade, R: persian speedwell (persian speedwell [27]; 144 g/ha): 5 (Herbicidal rate of 90% or more (almost completely withered))

Cc1nn(C)c(=O)c(-c2c(-c3ccsc3)sc3ccccc23)c1O [1-083]
herbicidal effect on H (barnyard grass), rating 0-5 (barnyard grass [1]; 320 g/ha): 3 (Herbicidal rate of 40% or more and less than 70%) | herbicidal effect on D (Chinese sprangletop), rating 0-5 (Chinese sprangletop; 320 g/ha): 3 (Herbicidal rate of 40% or more and less than 70%) | herbicidal effect on E (rice flat sedge), rating 0-5 (rice flat sedge; 320 g/ha): 4 (Herbicidal rate of 70% or more and less than 90%) | herbicidal effect rating, F: southern crabgrass (southern crabgrass [2]; [29]): 0 (Herbicidal rate of 5% or less (almost no effect)) | herbicidal effect rating, G: green foxtail (green foxtail [3]; [29]): 0 (Herbicidal rate of 5% or less (almost no effect)) | herbicidal effect rating, H: barnyard grass (barnyard grass [4]; [29]): 0 (Herbicidal rate of 5% or less (almost no effect)) | herbicidal effect rating, I: wild oat (wild oat [5]; [29]): 2 (Herbicidal rate of 20% or more and less than 40%) | herbicidal effect rating, J: blackgrass (blackgrass [6]; [29]): 0 (Herbicidal rate of 5% or less (almost no effect)) | herbicidal effect rating, K: Italian ryegrass (Italian ryegrass [7]; [29]): 3 (Herbicidal rate of 40% or more and less than 70%) | herbicidal effect rating, L: windgrass (windgrass [8]; [29]): 0 (Herbicidal rate of 5% or less (almost no effect)) | herbicidal effect rating, M: velvetleaf (velvetleaf [9]; [29]): 0 (Herbicidal rate of 5% or less (almost no effect)) | herbicidal effect rating, N: redroot pigweed (redroot pigweed [10]; [29]): 0 (Herbicidal rate of 5% or less (almost no effect)) | herbicidal effect rating, O: lambsquarters (lambsquarters [11]; [29]): 0 (Herbicidal rate of 5% or less (almost no effect)) | herbicidal effect rating, P: chickweed (chickweed [12]; [29]): 5 (Herbicidal rate of 90% or more (almost completely withered)) | herbicidal effect rating, Q: false cleavers (false cleavers [13]; [29]): 3 (Herbicidal rate of 40% or more and less than 70%) | herbicidal effect rating, R: persian speedwell (persian speedwell [14]; [29]): 5 (Herbicidal rate of 90% or more (almost completely withered)) | herbicidal effect grade, F: southern crabgrass (southern crabgrass [15]; 320 g/ha): 2 (Herbicidal rate of 20% or more and less than 40%) | herbicidal effect grade, G: green foxtail (green foxtail [16]; 320 g/ha): 0 (Herbicidal rate of 5% or less (almost no effect)) | herbicidal effect grade, H: barnyard grass (barnyard grass [17]; 320 g/ha): 0 (Herbicidal rate of 5% or less (almost no effect)) | herbicidal effect grade, I: wild oat (wild oat [18]; 320 g/ha): 3 (Herbicidal rate of 40% or more and less than 70%) | herbicidal effect grade, J: blackgrass (blackgrass [19]; 320 g/ha): 1 (Herbicidal rate of 5% or more and less than 20%) | herbicidal effect grade, K: Italian ryegrass (Italian ryegrass [20]; 320 g/ha): 4 (Herbicidal rate of 70% or more and less than 90%) | herbicidal effect grade, L: windgrass (windgrass [21]; 320 g/ha): 3 (Herbicidal rate of 40% or more and less than 70%) | herbicidal effect grade, M: velvetleaf (velvetleaf [22]; 320 g/ha): 5 (Herbicidal rate of 90% or more (almost completely withered)) | herbicidal effect grade, N: redroot pigweed (redroot pigweed [23]; 320 g/ha): 3 (Herbicidal rate of 40% or more and less than 70%) | herbicidal effect grade, O: lambsquarters (lambsquarters [24]; 320 g/ha): 0 (Herbicidal rate of 5% or less (almost no effect)) | herbicidal effect grade, P: chickweed (chickweed [25]; 320 g/ha): 5 (Herbicidal rate of 90% or more (almost completely withered)) | herbicidal effect grade, Q: false cleavers (false cleavers [26]; 320 g/ha): 4 (Herbicidal rate of 70% or more and less than 90%) | herbicidal effect grade, R: persian speedwell (persian speedwell [27]; 320 g/ha): 3 (Herbicidal rate of 40% or more and less than 70%)
